Source: patent US12534456B2, “Heterocyclyl pyridines as novel fungicides” (Bayer Aktiengesellschaft, priority 2020, dated 2026)

Assay: physchem
Format: physicochemical
Procedure: Measurement of Log P values as provided herein was performed according to EEC directive 79/831 Annex V.A8 by HPLC (High Performance Liquid Chromatography) on reversed phase columns with the following methods: • ^[a]
If more than one Log P value is available within the same method, all the values are given and separated by “+”.
Lambda-max-values were determined using UV-spectra from 200 nm to 400 nm and the peak values of the chromatographic signals

[1] = Table 11, compounds of formula (6), method [a]: LC-UV, acidic range, 0.1% formic acid in water and acetonitrile
[2] = Table 13, compounds of formula (7), method [a]

SMILES | LogP | also measured
CC1ON=C(c2cc(Cl)ncc2Oc2cccc(C(F)(F)F)c2)NC1c1ccc(Cl)cc1 (mixture of isomers) [Compound I-042] | 4.19^[a] | 
FC1ON=C(c2cc(Cl)ncc2Oc2cccc(C(F)(F)F)c2)NC1c1ccc(Cl)cc1 (mixture of isomers) [Compound I-051] | 3.33^[a] | 
CC(=O)OC1ON=C(c2cc(Cl)ncc2Oc2cccc(C(F)(F)F)c2)NC1c1ccc(Cl)cc1 (mixture of isomers) [Compound I-073] | 4.08^[a] | 
CCC1ON=C(c2cc(Cl)ncc2Oc2cccc(C(F)(F)F)c2)NC1c1ccc(OC)cc1 (mixture of isomers) [Compound I-122] | 4.07^[a] | 
FC(F)(F)c1cccc(Oc2cnc(Cl)cc2C2=NOC(C3CC3)C(c3ccc(Cl)cc3)N2)c1 (mixture of isomers) [Compound I-139] | 4.47^[a] | 
Cc1ccc(CC2CON=C(c3cc(Cl)ncc3Oc3cccc(C4CC4F)c3)N2)c(C)c1 (mixture of isomers) [Compound I-143] | 4.38^[a] | 
Cc1ccc(CC(CON2C(=O)c3ccccc3C2=O)NC(=O)c2cc(Cl)ncc2Oc2cccc(C(F)(F)F)c2)c(C)c1 (racemic) [Compound 3-01, 2-chloro-N-{(2RS)-1-(2,4-dimethylphenyl)-3-[(1,3-dioxo-1,3-dihydro-2H-isoindol-2-yl)oxy]propan-2-yl}-5-[3-(trifluoromethyl)phenoxy]isonicotinamide] |  | chromatographic logP (Table 7, compounds of formula (3), method [a]): 5.14
Cc1ccc(CC(CON)NC(=O)c2cc(Cl)ncc2Oc2cccc(C(F)(F)F)c2)c(C)c1 (racemic) [Compound 4-01, N-[(2RS)-1-(aminooxy)-3-(2,4-dimethylphenyl)propan-2-yl]-2-chloro-5-[3-(trifluoromethyl)phenoxy]isonicotinamide] |  | chromatographic logP (Table 9, compounds of formula (4a)/(4b), method [a]): 3.48
Cc1ccc(CC(CON)NC(=O)c2cc(C(F)(F)F)ncc2Br)c(C)c1 (racemic) [Compound 6-03, N-[(2RS)-1-(aminooxy)-3-(2,4-dimethylphenyl)propan-2-yl]-5-bromo-2-(trifluoromethyl)isonicotinamide] |  | chromatographic logP [1]: 2.51
Cc1ccc(CC(CON2C(=O)c3ccccc3C2=O)NC(=O)c2cc(C(F)(F)F)ncc2Br)c(C)c1 (racemic) [Compound 6-04, 5-bromo-N-{(2RS)-1-(2,4-dimethylphenyl)-3-[(1,3-dioxo-1,3-dihydro-2H-isoindol-2-yl)oxy]propan-2-yl}-2-(trifluoromethyl)isonicotinamide] |  | chromatographic logP [1]: 4.4
Cc1ccc(CC2CON=C(c3ccncc3Br)N2)cc1 (racemic) [Compound 7-02, (5RS)-3-(3-bromopyridin-4-yl)-5-(4-methylbenzyl)-5,6-dihydro-4H-1,2,4-oxadiazine] |  | chromatographic logP [2]: 2.31
Cc1ccc(CC2CON=C(c3cc(C(F)(F)F)ncc3Br)N2)c(C)c1 (racemic) [Compound 7-03, (5RS)-3-[5-bromo-2-(trifluoromethyl)pyridin-4-yl]-5-(2,4-dimethylbenzyl)-5,6-dihydro-4H-1,2,4-oxadiazine] |  | chromatographic logP [2]: 2.43
Cc1ccc(CC(CCl)NC(=O)c2ccncc2Br)cc1 (racemic) [Compound 17-01, 3-bromo-N-[(2RS)-1-chloro-3-(4-methylphenyl)propan-2-yl]isonicotinamide] |  | chromatographic logP (Table 22, compounds of formula (17), method [a]): 2.8
Cc1ccc(CC(CCl)NC(=NO)c2ccncc2Br)cc1 (racemic) [Compound 18-01, 3-bromo-N-[(2RS)-1-chloro-3-(4-methylphenyl)propan-2-yl]-N′-hydroxypyridine-4-carboximidamide] |  | chromatographic logP (Table 24, compounds of formula (18), method [a]): 2.78
Cc1ccc(CC2CON=C(c3cc(Cl)ncc3Oc3cccc(Cl)c3)N2)c(C)c1 (racemic) [Compound I-002] | 4.51^[a] | 
Cc1ccc(CC2CON=C(c3cc(Cl)ncc3Oc3cccc(C(F)F)c3)N2)c(C)c1 (racemic) [Compound I-003] | 4.08^[a] | 
FC(F)c1cccc(Oc2cnc(Cl)cc2C2=NOCC(Cc3ccc(Br)cc3Cl)N2)c1 (racemic) [Compound I-004] | 4.32^[a] | 
COc1cccc(Oc2cnc(Cl)cc2C2=NOCC(Cc3ccc(C)cc3C)N2)c1 (racemic) [Compound I-005] | 4.18^[a] | 
COc1cccc(Oc2cnc(Cl)cc2C2=NOCC(Cc3ccc(Br)cc3Cl)N2)c1 (racemic) [Compound I-006] | 4.37^[a] | 
Cc1cccc(Oc2cnc(Cl)cc2C2=NOCC(Cc3ccc(C)cc3C)N2)c1 (racemic) [Compound I-007] | 4.55^[a] | 
Cc1cccc(Oc2cnc(C)cc2C2=NOCC(Cc3ccc(C)cc3C)N2)c1 (racemic) [Compound I-008] | 3.61^[a] | 
COc1cccc(Oc2cnc(C)cc2C2=NOCC(Cc3ccc(C)cc3C)N2)c1 (racemic) [Compound I-009] | 3.29^[a] | 
Cc1ccc(CC2CON=C(c3cc(C)ncc3Oc3cccc(C(F)F)c3)N2)c(C)c1 (racemic) [Compound I-010] | 3.41^[a] | 
Cc1ccc(CC2CON=C(c3cc(Cl)ncc3Oc3cccc(C4CC4)c3)N2)c(C)c1 (racemic) [Compound I-013] | 4.89^[a] | 
Cc1ccc(CC2CON=C(c3cc(Cl)ncc3Oc3cccc(C4CC4)c3F)N2)c(C)c1 (racemic) [Compound I-014] | 4.89^[a] | 
Cc1ccc(CC2CON=C(c3cc(C)ncc3Oc3cccc(C4CC4)c3)N2)c(C)c1 (racemic) [Compound I-015] | 3.94^[a] | 
Cc1ccc(CC2CON=C(c3cc(C4CC4)ncc3Oc3cccc(C4CC4)c3)N2)c(C)c1 (racemic) [Compound I-016] | 4.87^[a] | 
Cc1ccc(CC2CON=C(c3cc(C)ncc3Oc3cccc(C4CC4)c3F)N2)c(C)c1 (racemic) [Compound I-017] | 4.03^[a] | 

SMILES | LogP | also measured
Cc1ccc(CC2CON=C(c3cc(C)ncc3Oc3cccc(Cl)c3)N2)c(C)c1 (racemic) [Compound I-018] | 3.76^[a] | 
Fc1c(Oc2cnc(Cl)cc2C2=NOCC(Cc3ccc(Br)cc3Cl)N2)cccc1C1CC1 (racemic) [Compound I-023] | 5.11^[a] | 
Fc1c(Oc2cnc(Cl)cc2C2=NOCC(Cc3ccc(Cl)cc3Cl)N2)cccc1C1CC1 (racemic) [Compound I-024] | 4.98^[a] | 
Clc1ccc(CC2CON=C(c3cc(Cl)ncc3Oc3cccc(C4CC4)c3)N2)c(Cl)c1 (racemic) [Compound I-025] | 4.98^[a] | 
Clc1cc(C2=NOCC(Cc3ccc(Br)cc3Cl)N2)c(Oc2cccc(C3CC3)c2)cn1 (racemic) [Compound I-026] | 5.16^[a] | 
CCc1cc(C2=NOCC(Cc3ccc(C)cc3C)N2)c(Oc2cccc(C3CC3)c2)cn1 (racemic) [Compound I-027] | 4.40^[a] | 
Cc1cc(C2=NOCC(Cc3ccc(Cl)cc3Cl)N2)c(Oc2cccc(C3CC3)c2)cn1 (racemic) [Compound I-028] | 4.08^[a] | 
Cc1ccc(CC2CON=C(c3cc(C)ncc3Oc3cccc(C4CC4)c3)N2)c(Cl)c1 (racemic) [Compound I-030] | 3.98^[a] | 
Cc1ccc(CC2CON=C(c3cc(C)ncc3Oc3cccc(C4CC4)c3F)N2)c(Cl)c1 (racemic) [Compound I-031] | 4.08^[a] | 
Cc1ccc(CC2CON=C(c3cc(Cl)ncc3Oc3cccc(C)c3F)N2)c(C)c1 (racemic) [Compound I-032] | 4.59^[a] | 
Cc1ccc(CC2CON=C(c3cc(C(F)(F)F)ncc3Oc3cccc(C4CC4)c3F)N2)c(C)c1 (racemic) [Compound I-033] | 5.20^[a] | 
Cc1ccc(CC2CON=C(c3cc(Cl)ncc3Oc3cccc(OC(F)F)c3F)N2)c(C)c1 (racemic) [Compound I-035] | 4.23^[a] | 
Cc1ccc(CC2CON=C(c3cc(Cl)ncc3Oc3ccc4c(c3)CC4)N2)c(C)c1 (racemic) [Compound I-036] | 4.88^[a] | 
Cn1cc(-c2ccc(CC3CON=C(c4cc(Cl)ncc4Oc4cccc(C(F)F)c4)N3)c(Cl)c2)cn1 (racemic) [Compound I-037] | 3.37^[a] | 
CC(=O)c1ccc(CC2CON=C(c3cc(Cl)ncc3Oc3cccc(C(F)F)c3)N2)c(Cl)c1 (racemic) [Compound I-038] | 3.47^[a] | 
C=Cc1ccc(CC2CON=C(c3cc(Cl)ncc3Oc3cccc(C(F)F)c3)N2)c(Cl)c1 (racemic) [Compound I-040] | 4.29^[a] | 
CC1(C)ON=C(c2cc(Cl)ncc2Oc2cccc(C(F)(F)F)c2)NC1c1ccc(F)cc1F (racemic) [Compound I-043] | 4.30^[a] | 
FC(F)(F)c1cccc(Oc2cnc(Cl)cc2C2=NOCC(c3ccc4c(c3)CCO4)N2)c1 (racemic) [Compound I-044] | 3.57^[a] | 
COc1ccc(C2CON=C(c3cc(Cl)ncc3Oc3cccc(C(F)(F)F)c3)N2)cc1 (racemic) [Compound I-045] | 3.60^[a] | 
FC(F)(F)c1cccc(Oc2cnc(Cl)cc2C2=NOCC(C3(c4ccccc4)CC3)N2)c1 (racemic) [Compound I-046] | 4.21^[a] | 
Cc1ccc(C2CON=C(c3cc(Cl)ncc3Oc3cccc(C(F)(F)F)c3)N2)cc1 (racemic) [Compound I-048] | 3.96^[a] | 
Cc1ccc(C2CON=C(c3cc(Cl)ncc3Oc3cccc(C(F)(F)F)c3)N2)cc1C (racemic) [Compound I-049] | 4.24^[a] | 
FC(F)(F)c1cccc(Oc2cnc(Cl)cc2C2=NOCC(c3ccc(Cl)cc3)N2)c1 (racemic) [Compound I-050] | 3.99^[a] | 
FC(F)(F)c1cccc(Oc2cnc(Cl)cc2C2=NOCC(c3ccc4c(c3)OCCO4)N2)c1 (racemic) [Compound I-052] | 3.48^[a] | 
FC(F)(F)c1cccc(Oc2cnc(Cl)cc2C2=NOCC(c3ccc4ccccc4c3)N2)c1 (racemic) [Compound I-053] | 4.20^[a] | 
FC(F)(F)c1cccc(Oc2cnc(Cl)cc2C2=NOCC(c3ccc4c(c3)CCC4)N2)c1 (racemic) [Compound I-054] | 4.41^[a] | 
FC(F)(F)Oc1ccc(C2CON=C(c3cc(Cl)ncc3Oc3cccc(C(F)(F)F)c3)N2)cc1 (racemic) [Compound I-055] | 4.26^[a] | 
